According to US20080118449A1, “COSMETIC FORMULATIONS OF PICEATANNOL AND RETINOIDS AND METHODS OF USE THEREOF” (priority 2006, published 2008):

Experiments:
[1] = tested on: skin wrinkles on the face of female subjects; experiment: Skin wrinkle improvement by computer aided laser profilometry (Skin Visiometer, silicone replicas); assay type: in vivo, human; settings: 9 weeks
Method: The effects of the cosmetic compositions of Example 1 and Comparative Example 1 and 2 on skin wrinkle improvement were determined by computer aided laser profilometry.
It involved sixteen female subjects of 30 years and over. The cosmetic compositions of Example 1 and Comparative Examples 1 and 2 were applied on the face (area of 2×2 cm2) of the test subjects, once a day with dose of 0.05 g for 9 weeks. Then, replicas of their skin wrinkles were prepared using white plastic silicon precision moulding compound. The changes in the skin wrinkles of the replicas were detected with Skin Visiometer (SV600 manufactured by Courage+Khazaka electronic GmbH, Germany). Three-dimensional images of the replicas were analyzed with a CCD camera. The skin wrinkle improvement effect was determined as average roughness of the wrinkles (Rz) according to the following numerical formula I:
Rz=(R1+R2+ . . . +Rn−1+Rn)/Number of wrinkles(n) (I)
Wherein, Rn is the roughness of each wrinkle and n is the number of the wrinkles.

[2] = tested on: skin of the upper outer arm of 16 human volunteers; experiment: Skin irritant potential, modified human 4-h patch test; assay type: in vivo
Method: The skin irritant potential of the cosmetic compositions of Example 1 and Comparative Example 1 and 2 were determined using a modification of the human 4-h patch test (Basketter D A, et al., Food Chem Toxicol 1997,:35: 845-852), involving application of 0.2 ml of the composition to be tested on a 25 mm plain Hill Top Chamber containing a Webril pad (Hill Top Companies, Cincinatti, Ohio, USA) to the skin of the upper outer arm of 16 human volunteers. Both upper arms of the panelist were used. Patches were applied in a balanced random order.
After 24 hours, the patches were removed and then the test areas were marked with a marking pen. After each lapse of 24, 48 and 72 hours, the test areas were observed and treatment sites were assessed for the presence of irritation using a 4 point scale (Table 2) at 24, 48 and 72 h after patch removal

[3] = emulsion (lotion) type formulation
[4] = lotion type cosmetic preparation, 0.20 wt% with 0.20 wt% retinyl palmitate
[5] = solution type formulation, 0.2 wt% with 0.2 wt% retinyl palmitate

| SMILES | effect on retinoid wrinkle improvement [1, 3] | effect on retinoid wrinkle improvement ([1]; solution type formulation) | effect of addition on irritancy of retinyl palmitate [2, 4] | effect of addition on irritancy of retinyl palmitate [2, 5] | efficiency relative to piceatannol on wrinkle improvement ([1]; emulsion type cosmetic preparations) |
| --- | --- | --- | --- | --- | --- |
| Oc1cc(O)cc(/C=C/c2ccc(O)c(O)c2)c1 [piceatannol, trans-3,4,3′,5′-tetrahydroxystilbene] | enhances the effect of retinol on wrinkle improvement | enhances the effect of retinol on wrinkle improvement | clearly reduced the irritancy of retinyl palmitate | clearly reduced the irritancy of retinyl palmitate |  |
| OC[C@H]1O[C@@H](Oc2cc(O)cc(/C=C/c3ccc(O)c(O)c3)c2)[C@H](O)[C@@H](O)[C@@H]1O (relative stereo) [astringin, trans-(3,5,3′,4′-tetrahydroxystilbene)-3-O-beta-d-glucopyranoside] | enhances the effect of retinol on wrinkle improvement | enhances the effect of retinol on wrinkle improvement | clearly reduced the irritancy of retinyl palmitate | clearly reduced the irritancy of retinyl palmitate | seems to be m ore efficient than piceatannol |
